We go through 32 compounds from BindingDB's records for doi:10.1021/jm060797q (Teikyo University, 2006).

The nature of the test: Antagonist activity against 1-alpha,25-dihydroxy vitamin D3-induced HL60 cell differentiation by NBT reduction method.
Turning to `C=C1/C(=C\C=C2/CCC[C@]3(C)[C@@H]([C@H](C)C[C@@H]4OC(=O)C(=C)[C@@H]4CCCC)CC[C@@H]23)C[C@@H](O)[C@H](C)[C@@H]1O`, the 50% inhibitory concentration (IC50) stood at 6.7 nM.

As for `C=C1C(=O)O[C@H](C[C@@H](C)[C@H]2CC[C@H]3/C(=C/C=C4/C[C@@H](O)C[C@H](O)C4=C)CCC[C@]23C)[C@@H]1C`, half-maximal inhibition (IC50) was put at 9.2 nM.

On to `C=C1/C(=C\C=C2/CCC[C@]3(C)[C@@H]([C@H](C)C[C@H]4OC(=O)C(=C)[C@@H]4C)CC[C@@H]23)C[C@@H](O)C[C@@H]1O`, for which the 50% inhibitory concentration (IC50) was found to be 11 nM. `C=C1/C(=C\C=C2/CCC[C@]3(C)[C@@H]([C@H](C)C[C@H]4OC(=O)C(=C)[C@@H]4C)CC[C@@H]23)C[C@@H](O)[C@H](CCCO)[C@@H]1O` registered a concentration for half-maximal inhibition (IC50) of 6.2 nM. Regarding `C=C1C(=O)O[C@H](C[C@@H](C)[C@H]2CC[C@H]3/C(=C/C=C4/C[C@@H](O)[C@H](CCCO)[C@H](O)C4=C)CCC[C@]23C)[C@@H]1C`, it took 6.2 nM to reach half-maximal inhibition (IC50). `C=C1C(=O)O[C@@H](C[C@@H](C)[C@H]2CC[C@H]3/C(=C/C=C4/C[C@@H](O)[C@H](CCCO)[C@H](O)C4=C)CCC[C@]23C)[C@@H]1C` showed an IC50 of 6.2 nM.

`C=C1/C(=C\C=C2/CCC[C@]3(C)[C@@H]([C@H](C)C[C@@H]4OC(=O)C(=C)[C@H]4CC)CC[C@@H]23)C[C@@H](O)[C@H](OCCCO)[C@@H]1O` had an IC50 of 8.4 nM. In the case of `C=C1C(=O)O[C@@H](C[C@@H](C)[C@H]2CC[C@H]3/C(=C/C=C4/C[C@@H](O)[C@H](OCCCO)[C@H](O)C4=C)CCC[C@]23C)[C@@H]1C`, the half-maximal inhibitory concentration (IC50) is 6.1 nM. Consider `C=C1/C(=C\C=C2/CCC[C@]3(C)[C@@H]([C@H](C)C[C@H]4OC(=O)C(=C)[C@@H]4CC(C)C)CC[C@@H]23)C[C@@H](O)[C@H](OCCCO)[C@@H]1O`, for which the 50% inhibitory concentration (IC50) stood at 9.3 nM.

In the case of `C=C1/C(=C\C=C2/CCC[C@]3(C)[C@@H]([C@H](C)C[C@@H]4OC(=O)C(=C)[C@@H]4CC)CC[C@@H]23)C[C@@H](O)[C@H](C)[C@@H]1O`, the IC50 was determined as 6.7 nM. In turn, `C=C1C[C@@H](C[C@@H](C)[C@H]2CC[C@H]3/C(=C/C=C4/C[C@@H](O)C[C@H](O)C4=C)CCC[C@]23C)OC1=O` came in with an IC50 of 6 nM. Turning to `C=C1/C(=C\C=C2/CCC[C@]3(C)[C@@H]([C@H](C)C[C@H]4OC(=O)C(=C)[C@@H]4CCC)CC[C@@H]23)C[C@@H](O)[C@H](OCCCO)[C@@H]1O`, the half-inhibitory concentration (IC50) was determined as 6.3 nM. Regarding `C=C1/C(=C\C=C2/CCC[C@]3(C)[C@@H]([C@H](C)C[C@@H]4OC(=O)C(=C)[C@@H]4CC(C)C)CC[C@@H]23)C[C@@H](O)C[C@@H]1O`, the IC50 came to 9.5 nM.

`C=C1/C(=C\C=C2/CCC[C@]3(C)[C@@H]([C@H](C)C[C@@H]4OC(=O)C(=C)[C@H]4CC)CC[C@@H]23)C[C@@H](O)[C@H](C)[C@@H]1O` came in with a 50% inhibitory concentration (IC50) of 6.7 nM. `C=C1/C(=C\C=C2/CCC[C@]3(C)[C@@H]([C@H](C)C[C@@H]4OC(=O)C(=C)[C@@H]4CCCC)CC[C@@H]23)C[C@@H](O)C[C@@H]1O` showed an IC50 of 8.2 nM. Consider `C=C1C[C@H](C[C@@H](C)[C@H]2CC[C@H]3/C(=C/C=C4/C[C@@H](O)C[C@H](O)C4=C)CCC[C@]23C)OC1=O`, for which inhibition was half-maximal at 6.3 nM (IC50). In turn, `C=C1C(=O)O[C@H](C[C@@H](C)[C@H]2CC[C@H]3/C(=C/C=C4/C[C@@H](O)C[C@H](O)C4=C)CCC[C@]23C)[C@@H]1CC` displayed an IC50 of 8.6 nM. Take `C=C1/C(=C\C=C2/CCC[C@]3(C)[C@@H]([C@H](C)C[C@@H]4OC(=O)C(=C)[C@H]4CC(C)C)CC[C@@H]23)C[C@@H](O)[C@H](OCCCO)[C@@H]1O`: 9.3 nM corresponded to half-maximal inhibition (IC50). Compound `C=C1/C(=C\C=C2/CCC[C@]3(C)[C@@H]([C@H](C)C[C@H]4OC(=O)C(=C)[C@@H]4C)CC[C@@H]23)C[C@@H](O)[C@H](C)[C@@H]1O` gave an IC50 of 8.1 nM.

With `C=C1/C(=C\C=C2/CCC[C@]3(C)[C@@H]([C@H](C)C[C@H]4OC(=O)C(=C)[C@H]4CC)CC[C@@H]23)C[C@@H](O)[C@H](C)[C@@H]1O`, half-maximal inhibition (IC50) was put at 6.7 nM. As for `C=C1/C(=C\C=C2/CCC[C@]3(C)[C@@H]([C@H](C)C[C@@H]4OC(=O)C(=C)[C@@H]4CCC)CC[C@@H]23)C[C@@H](O)[C@H](C)[C@@H]1O`, the concentration for half-maximal inhibition (IC50) is 6.3 nM. `C=C1C(=O)O[C@@H](C[C@@H](C)[C@H]2CC[C@H]3/C(=C/C=C4/C[C@@H](O)C[C@H](O)C4=C)CCC[C@]23C)[C@@H]1CC` yielded an IC50 of 8.6 nM. Compound `C=C1/C(=C\C=C2/CCC[C@]3(C)[C@@H]([C@H](C)C[C@@H]4OC(=O)C(=C)[C@@H]4CCC)CC[C@@H]23)C[C@@H](O)C[C@@H]1O` came in with an IC50 of 6 nM. For the compound `C=C1/C(=C\C=C2/CCC[C@]3(C)[C@@H]([C@H](C)C[C@@H]4OC(=O)C(=C)[C@H]4CC(C)C)CC[C@@H]23)C[C@@H](O)[C@H](CCCO)[C@@H]1O`, it took 9.3 nM to reach half-maximal inhibition (IC50). For `C=C1C(=O)O[C@@H](C[C@@H](C)[C@H]2CC[C@H]3/C(=C/C=C4/C[C@@H](O)C[C@H](O)C4=C)CCC[C@]23C)[C@@H]1C`, 7.7 nM corresponded to half-maximal inhibition (IC50).

The compound `C=C1/C(=C\C=C2/CCC[C@]3(C)[C@@H]([C@H](C)C[C@H]4OC(=O)C(=C)[C@@H]4CCCC)CC[C@@H]23)C[C@@H](O)[C@H](OCCCO)[C@@H]1O` gave an IC50 of 8.8 nM. In turn, `C=C1/C(=C\C=C2/CCC[C@]3(C)[C@@H]([C@H](C)C[C@@H]4OC(=O)C(=C)[C@@H]4C)CC[C@@H]23)C[C@@H](O)C[C@@H]1O` had a concentration for half-maximal inhibition (IC50) of 7.7 nM. Compound `C=C1C(=O)O[C@@H](C[C@@H](C)[C@H]2CC[C@H]3/C(=C/C=C4/C[C@@H](O)C[C@H](O)C4=C)CCC[C@]23C)[C@@H]1CCCC` registered a 50% inhibitory concentration (IC50) of 8.2 nM. `C=C1/C(=C\C=C2/CCC[C@]3(C)[C@@H]([C@H](C)C[C@H]4OC(=O)C(=C)[C@H]4CCC)CC[C@@H]23)C[C@@H](O)[C@H](OCCCO)[C@@H]1O` had an IC50 of 6.3 nM. Under `C=C1/C(=C\C=C2/CCC[C@]3(C)[C@@H]([C@H](C)C[C@H]4OC(=O)C(=C)[C@@H]4CCC)CC[C@@H]23)C[C@@H](O)[C@H](C)[C@@H]1O` stands 6.3 nM; under `C=C1/C(=C\C=C2/CCC[C@]3(C)[C@@H]([C@H](C)C[C@@H]4OC(=O)C(=C)[C@H]4CCC)CC[C@@H]23)C[C@@H](O)[C@H](C)[C@@H]1O`, 6.3 nM; under `C=C1/C(=C\C=C2/CCC[C@]3(C)[C@@H]([C@H](C)C[C@@H]4OC(=O)C(=C)[C@H]4CCCC)CC[C@@H]23)C[C@@H](O)[C@H](OCCCO)[C@@H]1O`, 8.8 nM.

Broadly, the IC50 is the concentration that inhibits the measured activity by half. Read a low IC50 as inhibition by little substance.
